Our source for the IC50 values is patent US9505728B2, “Triazolone compounds and uses thereof” (INCEPTION 2, INC., priority 2012, dated 2016).

By IC50 is commonly meant the midpoint of a concentration-inhibition curve.

For the experiment, the target named is T1, Human PPARα (Homo sapiens, UniProt Q07869).
T1 construct: host or cells: proprietary non-human mammalian cells
T1 sequence (Q07869 1-468): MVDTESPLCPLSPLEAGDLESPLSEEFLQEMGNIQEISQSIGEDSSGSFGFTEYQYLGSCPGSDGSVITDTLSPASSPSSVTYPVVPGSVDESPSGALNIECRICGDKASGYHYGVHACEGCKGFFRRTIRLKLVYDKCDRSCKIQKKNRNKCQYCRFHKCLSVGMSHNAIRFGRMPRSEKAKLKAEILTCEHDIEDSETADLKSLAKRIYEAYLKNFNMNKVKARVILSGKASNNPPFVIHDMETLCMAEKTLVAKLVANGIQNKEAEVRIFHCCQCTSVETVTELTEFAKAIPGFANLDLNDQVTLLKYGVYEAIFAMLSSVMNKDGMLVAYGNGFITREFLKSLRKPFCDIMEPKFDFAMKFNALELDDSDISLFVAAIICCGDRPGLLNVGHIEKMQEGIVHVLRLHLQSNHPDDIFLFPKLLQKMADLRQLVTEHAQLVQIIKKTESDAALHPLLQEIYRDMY
Description: Human PPARα Reporter Assay (luciferase). The format is cell-based. As to conditions: human PPARα reporter cells, overnight incubation, antagonism; read-out: Luciferase IC50. The procedure, abridged: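 Non-human mammalian cells constitutively expressing human PPARα with a PPARα-responsive luciferase reporter were dosed with compounds right after plating. After overnight incubation, media removed and detection reagent added; luminescence taken as proportional to PPARα activation, agonist or antagonist mode.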
(In general: A reporter such as luciferase makes a cellular process visible.)
For `CCn1c(CCCc2ccc(-c3ccc(NS(=O)(=O)Cc4ccccc4)c(C)n3)cc2)nn(Cc2ccc(C(C)(C)C)cc2)c1=O` [Example 125, 1-{[4-(tert-Butyl)phenyl]methyl}-4-ethyl-3-{3-[4-(6-methyl-5-{[benzylsulfonyl]amino}(2-pyridyl))phenyl]propyl}-1,2,4-triazolin-5-one], the IC50 turned out to be 0.356 µM.
For `CCn1c(CCCc2ccc(-c3ccc(NS(=O)(=O)c4ccc(Oc5ccc(C(F)(F)F)cn5)cc4)cn3)cc2)nn(Cc2ccc(C(C)(C)C)cc2)c1=O` [Example 77, 1-{[4-(tert-Butyl)phenyl]methyl}-4-ethyl-3-[3-(4-{5-[({4-[5-(trifluoromethyl)(2-pyridyloxy)]phenyl}sulfonyl)amino](2-pyridyl)}phenyl)propyl]-1,2,4-triazolin-5-one], the IC50 is 0.703 µM.
The figure for `CCn1c(CCCc2ccc(-c3ncc(N)cc3C(F)(F)F)cc2)nn(Cc2ccc(C(C)(C)C)cc2)c1=O` [Example 156, 3-(3-{4-[5-Amino-3-(trifluoromethyl)(2-pyridyl)]phenyl}propyl)-1-{[4-(tert-butyl)phenyl]methyl}-4-ethyl-1,2,4-triazolin-5-one] is 0.684 µM; for `CCn1c(CCCc2ccc(-c3ccc(OC)c(CC(=O)O)c3)cc2)nn(Cc2ccc(C3(F)COC3)cc2)c1=O` [Example 63] it is 0.562 µM.
The figure for `CCNC(=O)Nc1ccc(-c2ccc(CCCc3nn(Cc4ccc(C(C)(C)C)cc4)c(=O)n3CC)cc2)nc1` [Example 169, 1-(6-(4-(3-(1-(4-(tert-Butyl)benzyl)-4-ethyl-5-oxo-4,5-dihydro-1H-1,2,4-triazol-3-yl)propyl)phenyl)pyridin-3-yl)-3-ethylurea] is 0.535 µM; for `CCn1c(CCCc2ccc(-c3cc(C)c(NS(=O)(=O)Cc4ccccc4)cn3)cc2)nn(Cc2ccc(C(C)(C)C)cc2)c1=O` [Example 127, 1-{[4-(tert-Butyl)phenyl]methyl}-4-ethyl-3-{3-[4-(4-methyl-5-{[benzylsulfonyl]amino}(2-pyridyl))phenyl]propyl}-1,2,4-triazolin-5-one] it is 0.445 µM; for `CCn1c(CCCc2ccc(-c3ccc(OC)c(C4(C(=O)O)CC4)c3)cc2)nn(Cc2ccc(C(C)(C)C)cc2)c1=O` [Example 128, 1-(4′-(3-(1-(4-(tert-Butyl)benzyl)-4-ethyl-5-oxo-4,5-dihydro-1H-1,2,4-triazol-3-yl)propyl)-4-methoxy-[1,1′-biphenyl]-3-yl)cyclopropanecarboxylic acid] it is 0.281 µM.
Take `CCn1c(CCCc2ccc(-c3ccc(C4(O)CCOCC4)cc3)cc2)nn(Cc2ccc(C(C)(C)C)cc2)c1=O` [Example 187, 1-(4-(tert-Butyl)benzyl)-4-ethyl-3-(3-(4′-(4-hydroxytetrahydro-2H-pyran-4-yl)-[1,1′-biphenyl]-4-yl)propyl)-1H-1,2,4-triazol-5(4H)-one]: the half-maximal inhibitory concentration (IC50) came to 0.607 µM.
In the case of `CCn1c(CCCc2ccc(-c3cccc(NS(=O)(=O)c4ccc(Cl)cc4)n3)cc2)nn(Cc2ccc(C(C)(C)C)cc2)c1=O` [Example 83, 1-{[4-(tert-Butyl)phenyl]methyl}-3-{3-[4-(6-{[(4-chlorophenyl)sulfonyl]amino}(2-pyridyl))phenyl]propyl}-4-ethyl-1,2,4-triazolin-5-one], the IC50 was 0.06 µM.
The figure for `CCn1c(CCCc2ccc(-c3cccc(NS(=O)(=O)c4ccc(-c5ccc(OC)cc5)cc4)n3)cc2)nn(Cc2ccc(C(C)(C)C)cc2)c1=O` [Example 74, 1-{[4-(tert-Butyl)phenyl]methyl}-4-ethyl-3-(3-{4-[6-({[4-(4-methoxyphenyl)phenyl]sulfonyl}amino)(2-pyridyl)]phenyl}propyl)-1,2,4-triazolin-5-one] is 0.945 µM.
Regarding `CCn1c(CCCc2ccc(-c3ccc(C)c(C(=O)O)n3)cc2)nn(Cc2ccc(C(C)(C)C)cc2)c1=O` [Example 165, 6-(4-(3-(1-(4-(tert-Butyl)benzyl)-4-ethyl-5-oxo-4,5-dihydro-1H-1,2,4-triazol-3-yl)propyl)phenyl)-3-methylpicolinic acid], the 50% inhibitory concentration (IC50) was determined as 0.202 µM.
The figure for `CCn1c(CCCc2ccc(-c3ccc(OC)c(CCC(=O)O)c3)cc2)nn(Cc2ccc(C(C)(C)C)cc2)c1=O` [Example 179, 3-(5-{4-[3-(1-{[4-(tert-Butyl)phenyl]methyl}-4-ethyl-5-oxo(1,2,4-triazolin-3-yl))propyl]phenyl}-2-methoxyphenyl)propanoic acid] is 0.121 µM; for `CCOc1ccc(-c2ccc(CCCc3nn(Cc4ccc(C(C)(C)C)cc4)c(=O)n3CC)cc2)cc1CC(=O)O` [Example 38, 2-(4′-(3-(1-(4-(tert-Butyl)benzyl)-4-ethyl-5-oxo-4,5-dihydro-1H-1,2,4-triazol-3-yl)propyl)-4-ethoxy-[1,1′-biphenyl]-3-yl)acetic acid] it is 0.01 µM; for `CCn1c(CCCc2ccc(-c3ccnc(NS(=O)(=O)c4ccccc4)n3)cc2)nn(Cc2ccc(C(C)(C)C)cc2)c1=O` [Example 138, N-(4-(4-(3-(1-(4-(tert-Butyl)benzyl)-4-ethyl-5-oxo-4,5-dihydro-1H-1,2,4-triazol-3-yl)propyl)phenyl)pyrimidin-2-yl)benzenesulfonamide] it is 0.033 µM.
For the compound `CCn1c(CCCc2ccc(-c3csc(CC(=O)O)c3)cc2)nn(Cc2ccc(C(C)(C)C)cc2)c1=O` [Example 39, 2-(4-(4-(3-(1-(4-(tert-Butyl)benzyl)-4-ethyl-5-oxo-4,5-dihydro-1H-1,2,4-triazol-3-yl)propyl)phenyl)thiophen-2-yl)acetic acid], the half-maximal inhibitory concentration (IC50) is 0.707 µM.
`CCn1c(CCCc2ccc(-c3ccc(C(O)C(=O)NC4CC4)cc3)cc2)nn(Cc2ccc(C(C)(C)C)cc2)c1=O` (stereo not shown) [Example 51, 2-(4′-(3-(1-(4-(tert-Butyl)benzyl)-4-ethyl-5-oxo-4,5-dihydro-1H-1,2,4-triazol-3-yl)propyl)-[1,1′-biphenyl]-4-yl)-N-cyclopropyl-2-hydroxyacetamide]: the half-maximal inhibitory concentration (IC50) came to 0.292 µM.
The figure for `CCn1c(CCCc2ccc(-c3ccc(NS(C)(=O)=O)cn3)cc2)nn(Cc2ccc(C(C)(C)C)cc2)c1=O` [Example 12, N-(6-(4-(3-(1-(4-(tert-Butyl)benzyl)-4-ethyl-5-oxo-4,5-dihydro-1H-1,2,4-triazol-3-yl)propyl)phenyl)pyridin-3-yl)methanesulfonamide] is 0.063 µM; for `CCn1c(CCCc2ccc(-c3ccc(NS(=O)(=O)c4ccc5c(c4)CCN5C(C)=O)cn3)cc2)nn(Cc2ccc(C(C)(C)C)cc2)c1=O` [Example 75, 1-Acetyl-5-{[(6-{4-[3-(1-{[4-(tert-butyl)phenyl]methyl}-4-ethyl-5-oxo(1,2,4-triazolin-3-yl))propyl]phenyl}(3-pyridyl))amino]sulfonyl}indoline] it is 0.207 µM.
With `CCn1c(CCCc2ccc(-c3cccc(C4(C(N)=O)CC4)c3)cc2)nn(Cc2ccc(C(C)(C)C)cc2)c1=O` [Example 14, 1-(4′-(3-(1-(4-(tert-butyl)benzyl)-4-ethyl-5-oxo-4,5-dihydro-1H-1,2,4-triazol-3-yl)propyl)-[1,1′-biphenyl]-3-yl)cyclopropanecarboxamide], the IC50 turned out to be 0.284 µM.
With `CCn1c(CCCc2ccc(-c3ccc(C4(O)CCC4)cc3)cc2)nn(Cc2ccc(C(C)(C)C)cc2)c1=O` [Example 176, 1-(4-(tert-Butyl)benzyl)-4-ethyl-3-(3-(4′-(1-hydroxycyclobutyl)-[1,1′-biphenyl]-4-yl)propyl)-1H-1,2,4-triazol-5(4H)-one], the IC50 was 0.078 µM.
The figure for `CCn1c(CCCc2ccc(-c3ccc(OC)c(CC(=O)O)c3)cc2OC)nn(Cc2ccc(C(C)(C)C)cc2)c1=O` [Example 158, 2-(4′-(3-(1-(4-(tert-Butyl)benzyl)-4-ethyl-5-oxo-4,5-dihydro-1H-1,2,4-triazol-3-yl)propyl)-3′,4-dimethoxy-[1,1′-biphenyl]-3-yl)acetic acid] is 0.184 µM; for `CCn1c(CCCc2ccc(-c3ccc4c(c3)C(C(=O)O)CO4)cc2)nn(Cc2ccc(C(C)(C)C)cc2)c1=O` (racemic) [Example 96, (rac)-5-(4-(3-(1-(4-(tert-Butyl)benzyl)-4-ethyl-5-oxo-4,5-dihydro-1H-1,2,4-triazol-3-yl)propyl)phenyl)-2,3-dihydrobenzofuran-3-carboxylic acid] it is 0.272 µM; for `CCn1c(CCCc2ccc(-c3ccc(NS(=O)(=O)c4ccccc4)c(OC)n3)cc2)nn(Cc2ccc(C(C)(C)C)cc2)c1=O` [Example 98, 1-{[4-(tert-Butyl)phenyl]methyl}-4-ethyl-3-[3-(4-{6-methoxy-5-[(phenylsulfonyl)amino](2-pyridyl)}phenyl)propyl]-1,2,4-triazolin-5-one] it is 0.264 µM.
To `CCSc1ccc(-c2ccc(CCCc3nn(Cc4ccc(C(C)(C)C)cc4)c(=O)n3CC)cc2)cc1CC(=O)O` [Example 61, 2-(5-{4-[3-(1-{[4-(tert-Butyl)phenyl]methyl}-4-ethyl-5-oxo(1,2,4-triazolin-3-yl))propyl]phenyl}-2-ethylthiophenyl)acetic acid] belongs 0.02 µM; to `CCn1c(CCCc2ccc(-c3cnc(C4(F)COC4)nc3)cc2)nn(Cc2ccc(C(C)(C)C)cc2)c1=O` [Example 170, 1-(4-(tert-Butyl)benzyl)-4-ethyl-3-(3-(4-(2-(3-fluorooxetan-3-yl)pyrimidin-5-yl)phenyl)propyl)-1H-1,2,4-triazol-5(4H)-one], 0.041 µM.
